Test results taken from patent publication US7985745B2, “Method for pain treatment” (Abbott Laboratories, priority 2006, dated 2011).
Like-named read-outs stand apart in the source and are kept apart here. One block for each molecule: values may come before it.

What was measured:
[1] = molecular target: T1, histamine H4 receptor (Homo sapiens, UniProt Q9H3N8); experiment: FLIPR Ca2+ assay in HEK-293 cells stably expressing histamine H4 receptor and Gαqi5; type: cell-based; details: Kb for antagonists and inverse agonists, EC50 for partial agonists; block of histamine-induced Ca2+ increase
T1 construct: expressed in transfected cells; host or cells: HEK-293 cells, transient transfection with pCINeo vector; membranes
Text: Histamine H4 receptors from mammalian species have been cloned. Methods to clone, express, and assess the potency and functional activity of such cloned genes are well known to those skilled in the art of molecular biology. […] Before testing, cells are loaded with a Ca^+2 sensitive fluorescent dye, in this case Fluo-4. In the case of partial agonist or agonist ligands, addition of compound to the cells leads to the increase in intracellular Ca^+2 which is detected by FLIPR (Fluorescence Imaging Plate Reader; Molecular Devices, Sunnyvale, Calif.) technology. […] The fluorescence intensities measured before addition of the test compound are subtracted from the fluorescence intensities at later time points. Peak response values determined at each concentration of ligand are expressed as a percentage of the response obtained with the full agonist histamine. Concentration versus response data are analyzed to obtain compound potency as Kb values for antagonists and inverse agonists and as EC50 values for partial agonists.

[2] = molecular target: T1, histamine H4 receptor; experiment: 3H-histamine competition binding assay, membranes of transfected HEK-293 cells
Description: In this assay, membranes were prepared from HEK-293 cells transiently transfected with the pCINeo expression vector harboring the histamine H4 receptor by homogenization of the cells on ice in TE buffer (50 mM Tris-HCl buffer, pH 7.4, containing 5 mM EDTA), 1 mM benzamidine, 2 μg/ml aprotinin, 1 μg/ml leupeptin, and 1 μg/ml pepstatin. The homogenate was centrifuged at 40,000 g for 20 minutes at 4° C. This step was repeated, and the resulting pellet was resuspended in TE buffer. Aliquots were frozen at −70° C. until needed. On the day of assay, membranes were thawed and diluted with TE buffer. Competition radioligand binding assays were performed with increasing concentrations of test compound in the presence of [^3H]-histamine incubated at 25° C. for 1 h in a total volume of 0.5 ml of 50 mM Tris, 5 mM EDTA, pH 7.4. All binding reactions were terminated by filtration under vacuum onto polyethylenimine (0.3%) presoaked Unifilters (PerkinElmer Life Sciences) or Whatman GF/B filters (Whatman, Clifton, N.J.) followed by three brief washes with 4 ml of ice-cold TE buffer. Bound radiolabel was determined by liquid scintillation counting. For all of the radioligand competition binding assays, IC50 values and Hill slopes were determined by Hill transformation of the data and Ki values were determined by the Cheng-Prusoff equation.

[3] = system: thermal hyperalgesia; experiment: Complete Freund's adjuvant-induced thermal hyperalgesia; type: in vivo, rat; details: 30 minutes before testing, 48 hours after CFA, thermal stimulus
Description: To assess the effectiveness of representative compounds of the invention against hyperalgesia, animals were tested in an acute model of adjuvant-induced thermal hyperalgesia (see for example, Honore, et al. Behavioural Brain Research 167 (2006) 355-364; Carroll, et al. US Patent application US 2006/0025614A 1). To prepare animals for the model, a solution of Complete Freund's adjuvant (150 microliters of a 50% aqueous solution, Sigma Chemical Company, St. Louis, Mo.) was injected into the plantar surface of test paw of the animal (rat). Rats so injected develop a hyperalgesia to thermal stimulation which is assessed 48 hours after injection of the Complete Freund's adjuvant using a commercially available paw thermal stimulator (UARDG, Dept. of Anesthesiology, Univ. California at San Diego, La Jolla, Calif.). For testing, rats were placed individually in a so-called ‘hot box’ (i.e. Plexiglass cubicles mounted on a glass surface) maintained at 30° C., and allowed a 30 minute habituation period. A thermal stimulus, in the form of radiant heat emitted from a focused projection bulb, was then applied to the plantar surface of each hind paw. The stimulus current was maintained (e.g. at 4.5 Amp) and the time of exposure set to limit the extent of possible tissue damage (e.g. maximum of 20 seconds exposure to thermal heating from the projection bulb). The time (in seconds) for the withdrawal of the paw that was injected with the Complete Freund's adjuvant (CFA) and subjected to the thermal stimulus was recorded, and this was compared to the time (in seconds) for withdrawal of the uninjected paw subjected to the same thermal stimulus. […] To test the effect of a compound on the hyperalgesia, the test compound is dissolved in a vehicle (e.g. water or saline) and administered by i.p. (intraperitoneal) injection 30 minutes before the testing of the animal's response to the thermal stimulus to the paws. The antihyperalgesic activity of the compound in blocking the pain is shown by an increase in the time to withdraw the CFA-injected paw subjected to thermal stimulus. Experiments are done with single-dose and escalating-dosages of the test compound, and dose response curves constructed to determine ED50 values.

[4] = system: neuropathic pain; experiment: Chung model: L5/L6 spinal nerve ligation, mechanical allodynia by von Frey filaments; type: in vivo, rat; details: 100 micromole/kg i.p., 30 minutes before testing
Description: Animals were prepared for testing, by use of a surgical procedure that induces neuropathic pain in one paw. Male Sprague Dawley rats were purchased from Charles River (Portage, Mich.). Prior to surgery, animals were housed in groups and maintained in a temperature-regulated environment. Following nerve ligation surgery, animals were housed in groups, and had access to food and water ad libitum.
The L5 and L6 spinal nerves of anesthetized rats were tightly ligated in a manner described previously (see Kim and Chung, Pain (1992) vol. 50 pp. 355-363). An incision was made on the dorsal portion of the hip and the muscle was blunt-dissected to reveal the spinal processes. The L6 transverse process was removed, and the left side L5 and L6 spinal nerves were tightly ligated with 5.0 braided silk suture. The wound was cleaned, the membrane sewn with 4.0 dissolvable Vicryl suture and the skin closed with wound clips. The paw affected by the surgical procedure (the left paw) develops an allodynic response, a hypersensitivity to mechanical and other stimuli; neuropathic pain is assessed as an increased sensitivity in the surgically affected (left) allodynic paw compared to the control paw on the right side, and measured by comparing the response of the (left side) allodynic paw to the response of the unaffected right side control paw.
For the assessment of neuropathic pain, mechanical allodynia in the affected paw of animals that had undergone spinal nerve ligation was evaluated using testing with von Frey filaments. As described previously by S. R. Chaplan, et al (“Quantitative assessment of tactile allodynia in the rat paw” J. Neurosci. Meth. (1994) vol. 53 pp. 55-63), two weeks following surgery rats were acclimated to a testing box constructed of plexiglass with a wire mesh floor which allowed access to the plantar surface of the animal's hindpaws. Using an Up-Down method (Dixon, Annual Rev. Pharmacol. Toxicol. (1980) vol. 20, pp. 441-462; Chaplan et al. “Quantitative assessment of tactile allodynia in the rat paw” J. Neuroscience Methods (1994) vol. 53 pp. 55-63), von Frey filaments of increasing stiffness were applied to the plantar surface of the hindpaws and the withdrawal response of the animals was observed; for the surgically affected paw with neuropathic pain (the left side paw) the baseline level of allodynia has a withdrawal threshold of ≦4 g of pressure. By comparison, for the control paw without allodynia (in this case the right side paw), the typical withdrawal pressure is around 15 g. Representative compounds of the invention, administered intraperitoneally 30 minutes before testing, are able to reduce the symptoms of neuropathic pain and induce a dose-dependent increase in the withdrawal threshold for allodynic (left side) limb, up to a maximum effect of 15 g. The efficacy of the compound in reducing neuropathic pain at different doses is determined by comparing response in the surgery-affected paw versus the response in the control paw. This is expressed as the MPE (maximum percent effect), or 100 times the withdrawal threshold of the allodynic (left side) divided by the withdrawal threshold of the control (right side).

[5] = system: inflammatory pain; experiment: Carrageenan-induced thermal hyperalgesia, hotbox assay; type: in vivo; details: 90 minutes after carrageenan, tested 30 minutes after dosing
Description: To assess the effectiveness of representative compounds of the invention against acute model inflammatory pain, animals were tested in an acute model of carrageenan-induced thermal hyperalgesia (see for example, Honore, et al. Behavioural Brain Research 167 (2006) 355-364; Porreca, et al. Journal of Pharmacology and Experimental Therapeutics (2006) vol. 318 pp. 195-205). Carrageenan was injected into the test paw of the animal, and after 90 minutes, the test drug was administered by intraperitoneal dosing. The effect on thermal hyperalgesia was assessed in a hotbox assay which was done 30 minutes after the intraperitoneal dosing of the test drug, and the MPE (maximal percent effect) reported by comparison to the control paw (not injected with carrageenan), according to 100 times the withdrawal latency of the carrageenan injected paw (in seconds) divided by the withdrawal latency of the control (not injected with carrageenan) paw.

[6] = system: mechanical allodynia after skin incision; experiment: Surgical skin incision model, mechanical allodynia by von Frey hair; type: in vivo, rat
Description: This is a surgical skin incision model (Joshi, et al. Pain 123 (2006) 75-82). Animals (rats) were prepared for testing by subjecting them to a surgical procedure carried out under sterile conditions, where the plantaris muscle was elevated and incised longitudinally with the origin and insertion of the muscle remaining intact. The skin was then closed with two mattress sutures (e.g. 5-0 nylon sutures). After surgery, animals were allowed to recover on a warming plate and housed individually in cages with soft bedding. […] Animals were tested for mechanical allodynia using von Frey hair mechanical stimulation 2, 24, and 48 h after surgery as described for the Chung model.

[7] = system: osteoarthritis pain; experiment: MIA-induced knee joint osteoarthritis model, hind limb grip force; type: in vivo, rat; details: 100 micromole/kg i.p.; grip force 20 days after MIA; % return to normalcy vs naïve group
Description: Unilateral knee joint osteoarthritis was induced in rats by a single intra-articular (i.a.) injection of sodium monoiodoacetate (MIA) (Sigma-Aldrich, St. Louis, Mo.) (3 mg in 50 ul sterile isotonic saline) into the right knee joint cavity under light (1-3%) isoflurane anesthesia.
Pain behavior was assessed by measurement of hind limb grip force (GF) in adult osteoarthritic rats. Following the unilateral injection of MIA (male Sprague Dawley, 325-350 g, tested at 20 days following MIA injection), a behavioral measure of activity-induced pain was carried out. Measurements of the peak hind limb grip force were conducted by recording the maximum compressive force (CFmax), in grams of force, exerted on a hind limb strain gauge setup, in a commercially available grip force measurement system (Columbus Instruments, Columbus, Ohio).
During testing, each rat was gently restrained by grasping it around its rib cage and then allowed to grasp the wire mesh frame attached to the strain gauge. The experimenter then moved the animal in a rostral-to-caudal direction until the grip was broken. Each rat was sequentially tested twice at approximately 2-3 min interval to obtain a raw mean grip force (CFmax). This raw mean grip force data was in turn converted to a maximum hindlimb cumulative compressive force (CFmax), as the grams of force/kg of body weight, for each animal.
For evaluating the compound effects, the hind limb grip force was conducted 20 days following the intra-articular injection of MIA. A group of age-matched naïve (not injected with MIA) animals was added as a comparator to the drug-dosed groups. The vehicle control response for each group of MIA-treated animals was defined as the 0% response (0% effect), whereas the naïve control group was defined as the normal response and as 100% effect. The % effects for each dose group was expressed as % return of response to normalcy, compared to the naïve group. That is, the % effect=(Treatment CFmax−Vehicle CFmax)/[…]]×100). All experiments evaluating drug effects in this model were conducted in a randomized blinded fashion.

[8] = displacement of [3H]-histamine, 25° C., 1 h, read-out: Potency in Competition Binding Assay

- Potency in the FLIPR assay [1]: 200 nM
- Ki [2, 8]: 178 nM
- melting point: 175 to 178 °C (dec.)
SMILES: CN1CCN(c2cc(-c3cccnc3)nc(N)n2)CC1.O=C(O)/C=C\C(=O)O [Example 2, 4-(4-Methylpiperazin-1-yl)-6-(pyridin-3-yl)pyrimidin-2-amine, maleate]
- MPE ([3]; 30 micromole/kg i.p.): 51%
- MPE ([3]; 100 micromole/kg i.p.): 83%

SMILES: Nc1nc2c(c(N3CC[C@@H](N)C3)n1)CCCc1ccccc1-2 [Example 4, 4-((3R)-3-Amino-pyrrolidin-1-yl)-6,7-dihydro-5H-benzo[6,7]cyclohepta[1,2-d]pyrimidin-2-ylamine]
- MPE [4]: 47%
- MPE ([5]; 100 micromole/kg i.p.): 68%

- Potency in the FLIPR assay [1]: 15 nM
- Ki [2, 8]: 80 nM
SMILES: Nc1nc2c(c(N3CCNCC3)n1)CCCc1ccccc1-2 [Example 5, 4-piperazin-1-yl-6,7-dihydro-5H-benzo[6,7]cyclohepta[1,2-d]pyrimidin-2-ylamine]
- MPE [4]: 28%
- MPE ([5]; 100 micromole/kg i.p.): 23%

SMILES: O=S(=O)(NCCc1c[nH]cn1)NCc1ccc(Cl)c(Cl)c1 [Example 7, Sulfamide, N-[(3,4-dichlorophenyl)methyl]-N′-[2-(1H-imidazol-4-yl)ethyl]-]
- Potency in the FLIPR assay [1]: 34 nM
- Ki [2]: 33 nM
- MPE ([6]; 3 micromole/kg i.p.): 33%
- MPE ([6]; 10 micromole/kg i.p.): 50%
- % Effect [7]: 22%
- MPE ([5]; 3 micromole/kg i.p.): 33%
- MPE ([5]; 10 micromole/kg i.p.): 42%
- MPE ([5]; 30 micromole/kg i.p.): 93%
